The source of these data is patent US20250179125A1, “Alpha-sheet Polypeptides and Their Use” (University of Washington, priority 2021, published 2025).

In one test the target is T1, Aβ42 (Homo sapiens, UniProt P05067).
T1 construct: Remove Aβ42 film(s) from −80° C
The class given is biochemical. The following applies: 7500.0. The procedure: Peptides were co-incubated with 75 μM Aβ in PBS aggregation buffer and monitored for β-sheet formation via ThT fluorescence over time. In each case, AB alone (ie Aβ aggregating in PBS without any inhibitor) was run as the standard control and used for calculating % inhibition by the following equation:
Importantly, each value had its corresponding ‘blank’ subtracted from the raw data, ie: End Inhibitor value=Raw value at the end of the assay-value for peptide alone in PBS at the given concentration.
The ‘blank’ values never exceeded more than 2× starting Aβ value to ensure that overcorrection is not the source of efficacy in data processing-end Aβ value was on average 20× starting Aβ value. Peptide concentration was varied while Aβ concentration remained fixed to investigate the potency of the designs at equal- and sub-stoichiometric ratios of AP: Aβ (ratios investigated include 1:1, 1:10, and 1:100). […]
Inhibition of Abeta aggregation was assessed in our standard ThT assay and the results can be compared to those in the table comparing different peptides in their monomeric and dimeric forms with 10-fold excess of Abeta.
Aβ aggregation and fibril formation, as well as inhibition experiments with α-sheet peptides, were monitored via ThT fluorescence according to the procedure, as follows. […]

Test [1] has as its system E. coli UTI89 WT biofilms. Put plainly: Biofilm ThT assay in live E. coli UTI89 WT. It counts as cell-based. Conditions: 48 h growth, dimers 1-8 μM, monomers double. How it is done:
FIG. 2. Protocol to test inhibition of biofilm amyloid formation in live E. coli. Amyloid formation is assessed through a ThT assay like that used with Abeta and IAPP above. In addition, inhibition of amyloid disrupts the biofilm, leading to an increase in planktonic free-floating bacteria cells, which are then susceptible to antibiotics.
(§1) FIG. 4(a-b). Inhibition of amyloid formation by alpha-sheet designs in live E. coli clinical isolates. […] The concentrations are provided for the dimers, but the P1 and AP5 monomers were double that concentration to provide the same number of monomer units for comparison of the designs (ex. where it says 5 μM applied AP5, it was actually 10 μM). cNFU=corrected, normalized fluorescence units, where normalized signals were corrected by the nonspecific ThT fluorescence of E. coli UTI89 ΔcsgA biofilms. (b) Synthetic α-sheet peptides AP193 and AP195 decreased the ThT fluorescence of E. coli GERB319 biofilms, a clinical UTI isolate with resistance to gentamicin and ciprofloxacin (the dimeric peptides were added at 8 μM and AP5 and P1 were 16 μM to provide the same monomer equivalents). The unstructured control peptide P1 had no effect when applied at the same concentration. […]
Overnight cultures were grown in LB medium for ˜18 h. […] Peptide stocks were dissolved in water and concentrations were determined by Nanodrop™ (Thermo Scientific; Waltham, MA). […]

The subject of a further test is E. coli GERB319 biofilms. Put plainly: Biofilm ThT assay in clinical isolate E. coli GERB319. Conditions: dimeric peptides 8 μM, AP5 and P1 16 μM. The class given is cell-based. The procedure: as §1
Overnight cultures were grown in LB medium for ˜18 h. […] Peptide stocks were dissolved in water and concentrations were determined by Nanodrop™ (Thermo Scientific; Waltham, MA). […] Planktonic cells were spun down and resuspended in PBS, and the optical density of both planktonic and rinse samples was determined at 600 nm to estimate cell densities. […] 100 μL of each biofilm suspension was then transferred to a black-walled, clear-bottom 96 well plate for measurements in a plate reader (PerkinElmer; Waltham, MA). […]

In test [2] the test system is curli amyloid fibril formation in live E. coli. Put plainly: TEM of curli amyloid fibril formation in E. coli biofilms. The class given is cell-based. Conditions: equimolar concentrations. The procedure: FIG. 3(a-c).TEM images reveal extensive curli amyloid fibril formation in (a) peptide-free biofilms and biofilms grown in the presence of (c) P1, but not those grown in the presence of (b) AP195 dimer (Scale bars=2 μm). P1 and AP195 were added at equimolar concentrations. AP195 is an α-sheet peptide and P1 is a random coil control.
The random coil peptide control (P1) had no effect.

Bridge positions count the residues as written; N and C are the ends. Square brackets hold non-standard residues; d marks the D form. Peptide text beside a SMILES is read from it. I, II: the chains in the order shown.

T1 sequence (P05067 672-713 limits assumed): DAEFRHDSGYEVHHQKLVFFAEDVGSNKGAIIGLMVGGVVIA

In the case of `CSCC[C@H](NC(=O)[C@@H](CCC(=O)O)NC(=O)CNC(=O)[C@@H](CCCNC(=N)N)NC(C)=O)C(=O)N[C@H](CC(N)=O)C(=O)N[C@@H](CC(C)C)C(=O)N[C@H](CO)C(=O)N[C@@H](Cc1c[nH]c2ccccc12)C(=O)N[C@H](CCSC)C(=O)N[C@H](CC(N)=O)C(=O)N[C@H](CCC(=O)O)C(=O)N[C@H](Cc1ccc(O)cc1)C(=O)N[C@H](Cc1ccc(O)cc1)C(=O)NCC(=O)N[C@H](Cc1c[nH]c2ccccc12)C(=O)N[C@H](C(=O)N[C@H](CCSC)C(=O)N[C@@H](CC(N)=O)C(=O)N[C@H](CCSC)C(=O)N[C@@H](CCCCN)C(=O)N[C@H](CS)C(=O)NCC(=O)N[C@H](CCCNC(=N)N)C(N)=O)[C@@H](C)O` [AP527m, Ac-rGeMnLsWmneyyGwTmNmKcGr-NH2] (Ac-[dR]G[dE]M[dN]L[dS]W[dM][dN][dE][dY][dY]G[dW]T[dM]N[dM]K[dC]G[dR]-NH2), on Aβ42, the “% Inhibition 1:10 (AP peptide:Abeta42)” value was determined as 14%. “I: Ac-RGN[dW]N[dE]S[dK]MNEYSGW[dM]L[dM]C[dT]MGR-NH2 / II: Ac-RGN[dW]N[dE]S[dK]MNEYSGW[dM]L[dM]C[dT]MGR-NH2 (disulfide I:19-II:19) [AP500d, Ac-RGNwNeSkMNEYSGWmLmCtMGR-NH2]”: the “amyloid content in biofilms, ThT fluorescence (cNFU)” value in test [1] is “dose-dependent reduction”. The “ThT fluorescence of biofilms” value in the test on E. coli GERB319 biofilms is listed as “significant decrease”. Besides, the “curli amyloid fibril formation (TEM)” value in test [2] is reported as “inhibition of fibril formation”. For the compound “I: Ac-[dR]G[dE]M[dN]L[dS]W[dM][dN][dE][dY][dY]G[dW]T[dM]N[dM]K[dC]G[dR]-NH2 / II: Ac-[dR]G[dE]M[dN]L[dS]W[dM][dN][dE][dY][dY]G[dW]T[dM]N[dM]K[dC]G[dR]-NH2 (disulfide I:21-II:21) [AP527d, Ac-rGeMnLsWmneyyGwTmNmKcGr-NH2]”, at Aβ42, the “% Inhibition 1:10 (AP peptide:Abeta42)” value is recorded as 96%.
